Assay results as given in PubChem BioAssay AID1996.
≈ marks a conversion by molar mass, not a printed value. Non-standard residues stand in square brackets, D forms with d. Residues, ends and D or L forms follow the SMILES beside them. *: point of attachment. Tic = O=C(O)[C@@H]1Cc2ccccc2CN1; Boc = CC(C)(C)OC(=O)*

settings: buffer; pH 7.4; 200.0 µM

solubility kinetic [µg/mL]	SMILES
1 (≈ 3.08 µM)	O=C(NC1CCCC1)c1cc(-c2ccc(Cl)cc2Cl)on1
1 (≈ 3.75 µM)	Cn1c(=NC(=O)C(C)(C)C)sc2cccc(F)c21
22.3 (≈ 73.8 µM)	COC(=O)c1ccc(NC(=S)Nc2ccc(O)cc2)cc1
1.1 (≈ 3.69 µM)	CCCn1cnc2scc(-c3ccc(C)c(C)c3)c2c1=O
34.7 (≈ 106 µM)	Cc1ccc(N2C(=O)CC(Sc3nc(C)cc(C)n3)C2=O)cc1 (centres undefined)
35 (≈ 103 µM)	COc1cc(C)ccc1S(=O)(=O)NC1CC(C)(C)NC(C)(C)C1
0.4 (≈ 1.24 µM)	O=C(Nc1ccc(Cl)cc1Cl)c1ccc2ncsc2c1
> 47.2	O=C(NCc1ccccc1)C1CC(=O)N(C2CCCCCC2)C1 (centres undefined)
4 (≈ 12.8 µM)	Cc1cc(C(=O)NC(C)CCc2ccccc2)ccc1[N+](=O)[O-] (centres undefined)
8 (≈ 26.6 µM)	Cc1nc2ccc(NC(=O)Cc3ccccc3F)cc2s1
> 48.2	O=C(c1ccc2[nH]c(=O)c(=O)[nH]c2c1)N1CCc2ccccc2C1
41.8 (≈ 118 µM)	O=C(C1=C(O)C(=O)N(CC2CCCO2)C1c1ccccc1)c1ccco1 (centres undefined)
44.4	Cl.N=c1sccn1CC(=O)Nc1ccc(Cl)cc1[N+](=O)[O-]
1 (≈ 2.9 µM)	O=C(c1ccco1)N1CCN(C2c3ccccc3-c3ccccc32)CC1
> 42.7	OCC1CCCCN1C(=S)Nc1cccc(Cl)c1 (centres undefined)
> 31.2	CNc1cc(C)nc(N2CCOCC2)n1
52.3 (≈ 148 µM)	Cc1cn(Cc2ccccc2Cn2cc(C)c(=O)[nH]c2=O)c(=O)[nH]c1=O
> 52.7	O=C1c2ccccc2NC(c2ccccc2)N1CCCN1CCOCC1 (centres undefined)
10.1 (≈ 28.2 µM)	Oc1ccc2ccccc2c1CN1CCN(C/C=C/c2ccccc2)CC1
7.8 (≈ 24.1 µM)	O=C1[C@@H]2C(c3ccc(F)cc3)=NO[C@@H]2C(=O)N1Cc1ccccc1
41.3 (≈ 119 µM)	COc1ccc(CCC(=O)Nc2nc(C)c(C(=O)N(C)C)s2)cc1

solubility kinetic [µg/mL]	SMILES
> 34.1	O=S1(=O)C[C@@H](O)[C@@H](Nc2ccccc2)C1
8.5 (≈ 26.8 µM)	CCOc1ccccc1NC(=O)c1ccccc1-c1ccccc1
17 (≈ 32.7 µM)	Cc1ccc(S(=O)(=O)N2CCN(C(=O)COC(=O)c3cc([N+](=O)[O-])ccc3NCCO)CC2)c(C)c1
25.3 (≈ 74.3 µM)	Cc1ccnc(N(C(=O)Nc2ccccc2)C2=NCC(C)(C)S2)c1
> 26.9	[NH-]S(=O)(=O)c1ccccc1.[Na+]
1.4 (≈ 4.96 µM)	O=[N+]([O-])c1ccc(O)c(Nc2ncnc3ccccc23)c1
17 (≈ 63.8 µM)	N#CCSc1ccc(-c2nc3ccccc3[nH]2)cn1
15.8 (≈ 36 µM)	Cc1ccc(NC(=O)COC(=O)CCC2CCCC2)cc1S(=O)(=O)N1CCOCC1
43.2 (≈ 130 µM)	O=C(CCn1c(=O)oc2ccccc21)NCCCN1CCOCC1
4.8 (≈ 12.8 µM)	O=C(c1c(Cl)cccc1Cl)N1CCN(c2cccc3[nH]ccc23)CC1
46.4 (≈ 133 µM)	O=C(CNC(=O)c1ccccc1)OCc1cccc(Br)c1
0.9 (≈ 3.8 µM)	COc1ccc2cc(/C=N/O)c(Cl)nc2c1
> 47.8	Cc1nn(-c2ccccc2)c(Cl)c1C(=O)N1CCN(C)CC1
> 50.5	CC(=O)c1cc(CN2CCN(CC=C(C)C)C(CCO)C2)cs1 (centres undefined)
> 46.5	O=C1CC(N2CCc3ccccc32)C(=O)N1c1ccc(F)cc1 (centres undefined)
10.6	Cl.Nc1cc(Cl)ccc1N1CCCC1
> 44.7	O=C(CN1CCOCC1)NNC(=O)c1ccc(Cl)cc1
31.9 (≈ 131 µM)	CC(C)(C)C(=O)N1CCn2c1nc1ccccc12
> 46.6	CCc1cc(C(=O)NCC(C)(C)N2CCOCC2)sc1C
> 44	COc1ccccc1Oc1nc([N+](=O)[O-])nn1CC(N)=O
1.1 (≈ 4.03 µM)	COc1ccc(Cn2c(=O)oc3ccccc32)cc1F

solubility kinetic [µg/mL]	SMILES
> 32.4	C=CCNC(=O)/C(C#N)=C/c1ccc(C)o1
> 31.7	CCCn1c(N)cc(=O)n(CCC)c1=O
49.9 (≈ 133 µM)	CC(C)(C)OC(=O)N1Cc2ccccc2C[C@H]1C(=O)N1CCC[C@H]1C(=O)O (Boc-[Tic]-Pro-OH)
44.4 (≈ 130 µM)	Cc1cc(C)cc(NC(=O)N2CCC(NC(=O)c3ccco3)CC2)c1
21.8 (≈ 72.1 µM)	O=C(CN1C(=O)NC2(CCCC2)C1=O)OCc1ccccc1
14.4 (≈ 44.7 µM)	Cc1cc(C)cc(NC(=O)C(C)N2C(=O)c3ccccc3C2=O)c1 (centres undefined)
> 38.9	O=C(Nc1ccccc1F)c1ccc2c(c1)OCO2
16.3 (≈ 59 µM)	COc1ccc(-c2nc3n(c2C)Cc2ccccc2-3)cc1
32.8	Cl.NCCSC1CC(=O)N(c2ccc(Cl)c(Cl)c2)C1=O (centres undefined)
31.1 (≈ 74.3 µM)	COc1ccc([N+](=O)[O-])cc1NC(=O)C(C)OC(=O)Cc1ccc(OC)c(OC)c1 (centres undefined)
< 0.2	CN(C)c1nc(N)ncc1-c1ccc(Oc2ccccc2)cc1
> 46.9	CC1CN(C(=S)NC(=O)c2ccc(Cl)cc2)CC(C)O1 (centres undefined)
> 59.2	O=C(NC(=O)C(F)(F)F)Nc1ccc(S(=O)(=O)Nc2nccs2)cc1
> 51.6	O=C(/C(=C/c1cccnc1)n1ccnc1)c1ccc(Cl)cc1Cl
5.1 (≈ 15.4 µM)	COc1cccc(CNC(=O)Cc2ccc(-c3ccccc3)cc2)c1
0.5 (≈ 1.48 µM)	CCN1C(=O)c2ccc(C(=O)Nc3ccc4c(c3)OCO4)cc2C1=O
> 42.2	CCC1CCCCN1C(=O)COC(=O)c1cccs1 (centres undefined)
> 45.9	O=C(O)CN1C(=O)c2cccc3c(Br)ccc1c23
34.6 (≈ 97.6 µM)	COCCn1c(N)c(C(=S)NC(=O)c2cccs2)c(=O)[nH]c1=O
> 44.6	COc1cc(C2=NC(CO)(CO)CO2)cc(OC)c1OC
> 57.2	NS(=O)(=O)c1ccc(N2CCOCC2)c(C(=O)NCc2cccs2)c1

solubility kinetic [µg/mL]	SMILES
34.2 (≈ 104 µM)	CCn1c(=S)[nH]c2cc(S(=O)(=O)N3CCOCC3)ccc21
27.4 (≈ 90 µM)	O=C(CCn1c(=O)sc2ccccc21)NC1CCCCC1
> 55.6	O=C(Nc1ccc(S(=O)(=O)N2CCc3ccccc32)cc1)C(F)(F)F
> 48.3	COc1ccc(/C(=N/Nc2ncnc3ccccc23)C(=O)O)cc1
32.3 (≈ 130 µM)	O=C(/C=C/c1cccs1)NCc1cccs1
40 (≈ 125 µM)	c1ccc(-c2cnc(CN3CCN(c4ccccc4)CC3)o2)cc1
37.5 (≈ 131 µM)	N#C/C(=C/c1ccc(F)cc1)S(=O)(=O)c1ccccc1
5.6 (≈ 16.7 µM)	O=C(CCCNC(=O)c1ccc(Cl)cc1)Nc1cccc(F)c1
< 0.2	C#CCn1c2ccccc2c2nc3ccccc3nc21
> 29.5	CC(C[N+](C)(C)C)OC(N)=O.[Cl-] (centres undefined)
> 43.7	CCc1cccc(C)c1NC(=O)CSc1nnc(C)o1
20.7 (≈ 83 µM)	O=C(CC1CCCCC1)NCc1ccc(F)cc1
> 41.3	Cc1cccc(C(=O)OCC(=O)N2CCCCCC2)c1
37.1 (≈ 111 µM)	COc1ccc(CCN(C)Cc2cccc3ccccc23)cc1OC
4.4 (≈ 12.4 µM)	Nc1cc(=O)[nH]c(SCC(=O)Nc2cc([N+](=O)[O-])ccc2Cl)n1
38 (≈ 119 µM)	CCCS(=O)(=O)C/C(N)=N/OC(=O)c1ccccc1Cl
1.5 (≈ 5.63 µM)	Nc1nc(Cl)cc(Oc2ccc([N+](=O)[O-])cc2)n1
4.8 (≈ 13.7 µM)	COc1ccc2cc(CCNC(=O)CCc3ccccc3)c(=O)[nH]c2c1
> 51.4	CSc1ccccc1C(=O)C1CCCN(S(=O)(=O)N(C)C)C1 (centres undefined)
> 51.1	CCN(CC(=O)NCc1ccco1)S(=O)(=O)c1ccc(F)cc1
46.2	CC(=O)Nc1ccc(CNC(=O)C[N+]2(C)CCOCC2)cc1.[Cl-]
